Laboratory results published in patent US11965039B2, “Compstatin analogues and their medical uses” (priority 2018, dated 2024).
Where two headings read alike, the source gives them in different places. Positions of bridges follow the written chain, without caps; N, C: chain ends. Non-standard residues stand in square brackets, D forms with d. Residues, ends and D or L forms follow the SMILES beside them. Sar = CNCC(=O)O

Tested on: classical complement pathway
Assay: In vitro haemolysis assay (inhibition of classical complement pathway)
Format: cell-based, human
Settings: human serum, sensitized sheep red blood cells
Experimental: The in vitro effect of the compounds of the present invention was assessed by measuring their inhibitory effect of the classical complement pathway in a haemolysis assay. Briefly, compounds of the present invention and reference compounds were dissolved in DMSO and diluted in Tris/Casein Assay Buffer (10 mM Tris, 145 mM NaCl, 0.5 mM MgCl2, 0.15 mM CaCl2), and 0.1% W/V Casein, adjusted to pH 7.4) as 9-point serial dilutions in a 96 well plate. Sensitized sheep red blood cells (RBC) coated with rabbit anti-sheep erythrocyte antiserum (Complement Technology, Inc., TX, USA) were washed in Tris/Casein Assay Buffer. […] from each well of diluted compound was added to a 96-well plate containing 50 μL diluted human serum (Complement Technology, Inc., TX, USA) and incubated for 15 minutes at room temperature. The serum dilution factor was optimized for every serum batch to obtain 70-90% of maximal haemolysis using the protocol. Then 50 μL sensitized sheep red blood cells were added to all wells (10^7 per well). After 30 minutes of incubation at 37 QC with gentle agitation, the reaction was stopped by addition of 50 μL Tris STOP Buffer per well (10 mM EDTA, 10 mM Tris, 145 mM NaCl adjusted to pH 7.4). The RBCs were then removed by centrifugation and the resulting supernatant measured for hemolysis by absorbance at 405 nm. The response was normalized relative to a positive and negative control (vehicle) to calculate the IC50 from the concentration response curve using the 4-parameter logistic (4PL) nonlinear model for curve fitting.

[1] = Table 3, given as upper bounds, read-out: IC50, inhibition of hemolysis
[2] = Table 4, valine 3 vs isoleucine 3 pairs, read-out: CP hemolysis IC50

SMILES: CC[C@H](C)[C@H](NC(C)=O)C(=O)N[C@H]1CSSC[C@@H](C(=O)N[C@H](C(N)=O)[C@@H](C)O)NC(=O)[C@H](CCCNC(=N)N)NC(=O)[C@H](Cc2c[nH]cn2)NC(=O)[C@H](CO)NC(=O)CNC(=O)[C@H](Cc2c[nH]c3ccccc23)NC(=O)[C@H](CC(=O)O)NC(=O)[C@H](CCC(N)=O)NC(=O)[C@H](Cc2c[nH]c3ccccc23)NC(=O)[C@H]([C@@H](C)CC)NC1=O [Compound 6] (Ac-ICIWQDWGSHRCT-NH2; disulfide 2-12)
- IC50 [1]: < 250 nM
- IC50 [2]: 140 nM

SMILES: CC[C@H](C)[C@H](NC(C)=O)C(=O)N[C@H]1CSSC[C@@H](C(=O)N[C@H](C(N)=O)[C@@H](C)O)NC(=O)[C@H](CCCNC(=N)N)NC(=O)[C@H](Cc2c[nH]cn2)NC(=O)[C@H](CCC(=O)O)NC(=O)CNC(=O)[C@H](Cc2c[nH]c3ccccc23)NC(=O)[C@H](CCCCN)NC(=O)[C@H](CCC(N)=O)NC(=O)[C@H](Cc2c[nH]c3ccccc23)NC(=O)[C@H]([C@@H](C)CC)NC1=O [Compound 7] (Ac-ICIWQKWGEHRCT-NH2; disulfide 2-12)
- IC50 [1]: < 1000 nM

SMILES: CC[C@H](C)[C@H](NC(C)=O)C(=O)N[C@H]1CSSC[C@@H](C(=O)N[C@H](C(=O)NCC(=O)N[C@@H](C)C(=O)N[C@@H](CCC(=O)O)C(=O)N[C@@H](CO)C(N)=O)[C@@H](C)O)NC(=O)[C@H](CCCNC(=N)N)NC(=O)[C@H](Cc2c[nH]cn2)NC(=O)[C@H](C)NC(=O)CNC(=O)[C@H](Cc2c[nH]c3ccccc23)NC(=O)[C@H](CCCCN)NC(=O)[C@H](CCC(N)=O)NC(=O)[C@H](Cc2c[nH]c3ccccc23)NC(=O)[C@H]([C@@H](C)CC)NC1=O [Compound 8] (Ac-ICIWQKWGAHRCTGAES-NH2; disulfide 2-12)
- IC50 [1]: < 500 nM

SMILES: CC[C@H](C)[C@@H]1NC(=O)[C@@H](NC(=O)[C@H](Cc2ccc(O)cc2)NC(C)=O)CSSC[C@@H](C(=O)N[C@H](C(N)=O)[C@@H](C)O)NC(=O)[C@H](CCCNC(=N)N)NC(=O)[C@H](Cc2c[nH]cn2)NC(=O)[C@H](CCC(=O)O)NC(=O)CNC(=O)[C@H](Cc2c[nH]c3ccccc23)NC(=O)[C@H](CC(=O)O)NC(=O)[C@H](CCC(N)=O)NC(=O)[C@H](Cc2c[nH]c3ccccc23)NC1=O [Compound 9] (Ac-YCIWQDWGEHRCT-NH2; disulfide 2-12)
- IC50 [1]: < 100 nM

SMILES: CC[C@H](C)[C@@H]1NC(=O)[C@@H](NC(=O)[C@H](Cc2ccc(O)cc2)NC(=O)[C@H](C)NC(=O)[C@H](CO)NC(=O)[C@H](CO)NC(=O)[C@H](CCC(=O)O)NC(C)=O)CSSC[C@@H](C(=O)N[C@H](C(N)=O)[C@@H](C)O)NC(=O)[C@H](CCCNC(=N)N)NC(=O)[C@H](Cc2c[nH]cn2)NC(=O)[C@H](CCC(=O)O)NC(=O)CNC(=O)[C@H](Cc2c[nH]c3ccccc23)NC(=O)[C@H](CC(=O)O)NC(=O)[C@H](CCC(N)=O)NC(=O)[C@H](Cc2c[nH]c3ccccc23)NC1=O [Compound 10] (Ac-ESSAYCIWQDWGEHRCT-NH2; disulfide 6-16)
- IC50 [1]: < 100 nM

SMILES: CC[C@H](C)[C@@H]1NC(=O)[C@@H](NC(=O)CN(C)C(C)=O)CSSC[C@@H](C(=O)N[C@H](C(N)=O)[C@@H](C)O)NC(=O)[C@H](CCCNC(=N)N)NC(=O)[C@H](Cc2c[nH]cn2)NC(=O)[C@H](CCC(=O)O)NC(=O)CNC(=O)[C@H](Cc2c[nH]c3ccccc23)NC(=O)[C@H](CC(=O)O)NC(=O)[C@H](CCC(N)=O)NC(=O)[C@H](Cc2c[nH]c3ccccc23)NC1=O [Compound 11] (Ac-[Sar]CIWQDWGEHRCT-NH2; disulfide 2-12)
- IC50 [1]: < 100 nM

SMILES: CC[C@H](C)[C@H](NC(C)=O)C(=O)N[C@H]1CSSC[C@@H](C(=O)N[C@@H](CCC(=O)O)C(N)=O)NC(=O)[C@H](CCCNC(=N)N)NC(=O)[C@H](Cc2c[nH]cn2)NC(=O)[C@H](C)NC(=O)CNC(=O)[C@H](Cc2c[nH]c3ccccc23)NC(=O)[C@H](CC(=O)O)NC(=O)[C@H](CCC(N)=O)NC(=O)[C@H](Cc2c[nH]c3ccccc23)NC(=O)[C@H]([C@@H](C)CC)NC1=O [Compound 12] (Ac-ICIWQDWGAHRCE-NH2; disulfide 2-12)
- IC50 [1]: < 100 nM

SMILES: CC[C@H](C)[C@H](NC(C)=O)C(=O)N[C@H]1CSSC[C@@H](C(=O)N(C)CC(N)=O)NC(=O)[C@H](CCCNC(=N)N)NC(=O)[C@H](Cc2c[nH]cn2)NC(=O)[C@H](CCC(=O)O)NC(=O)CNC(=O)[C@H](Cc2c[nH]c3ccccc23)NC(=O)[C@H](CC(=O)O)NC(=O)[C@H](CCC(N)=O)NC(=O)[C@H](Cc2c[nH]c3ccccc23)NC(=O)[C@H]([C@@H](C)CC)NC1=O [Compound 13] (Ac-ICIWQDWGEHRC[Sar]-NH2; disulfide 2-12)
- IC50 [1]: < 100 nM

SMILES: CC[C@H](C)[C@H](NC(C)=O)C(=O)N[C@H]1CSSC[C@@H](C(=O)N[C@H](C(N)=O)[C@@H](C)O)NC(=O)[C@H](CCCNC(=N)N)NC(=O)[C@H](Cc2c[nH]cn2)NC(=O)[C@H](CCC(=O)O)NC(=O)CNC(=O)[C@H](Cc2c[nH]c3ccccc23)NC(=O)[C@H](CCC(=O)O)NC(=O)[C@H](CCC(N)=O)NC(=O)[C@H](Cc2c[nH]c3ccccc23)NC(=O)[C@H]([C@@H](C)CC)NC1=O [Compound 16] (Ac-ICIWQEWGEHRCT-NH2; disulfide 2-12)
- IC50 [1]: < 100 nM

SMILES: CC[C@H](C)[C@H](NC(C)=O)C(=O)N[C@H]1CSSC[C@@H](C(=O)N[C@H](C(N)=O)[C@@H](C)O)NC(=O)[C@H](CCCNC(=N)N)NC(=O)[C@H](Cc2c[nH]cn2)NC(=O)[C@H](CC(=O)O)NC(=O)CNC(=O)[C@H](Cc2c[nH]c3ccccc23)NC(=O)[C@H](CC(=O)O)NC(=O)[C@H](CCC(N)=O)NC(=O)[C@H](Cc2c[nH]c3ccccc23)NC(=O)[C@H]([C@@H](C)CC)NC1=O [Compound 17] (Ac-ICIWQDWGDHRCT-NH2; disulfide 2-12)
- IC50 [1]: < 100 nM

SMILES: CC[C@H](C)[C@H](NC(C)=O)C(=O)N[C@H]1CSSC[C@@H](C(=O)N[C@H](C(N)=O)[C@@H](C)O)NC(=O)[C@H](CCCNC(=N)N)NC(=O)[C@H](Cc2c[nH]cn2)NC(=O)[C@H](CCCNC(=N)N)NC(=O)CNC(=O)[C@H](Cc2c[nH]c3ccccc23)NC(=O)[C@H](CC(=O)O)NC(=O)[C@H](CCC(N)=O)NC(=O)[C@H](Cc2c[nH]c3ccccc23)NC(=O)[C@H]([C@@H](C)CC)NC1=O [Compound 18] (Ac-ICIWQDWGRHRCT-NH2; disulfide 2-12)
- IC50 [1]: < 100 nM

SMILES: CC[C@H](C)[C@H](NC(C)=O)C(=O)N[C@H]1CSSC[C@@H](C(=O)N[C@H](C(N)=O)[C@@H](C)O)NC(=O)[C@H](CO)NC(=O)[C@H](Cc2c[nH]cn2)NC(=O)[C@H](C)NC(=O)CNC(=O)[C@H](Cc2c[nH]c3ccccc23)NC(=O)[C@H](CC(=O)O)NC(=O)[C@H](CCC(N)=O)NC(=O)[C@H](Cc2c[nH]c3ccccc23)NC(=O)[C@H]([C@@H](C)CC)NC1=O [Compound 19] (Ac-ICIWQDWGAHSCT-NH2; disulfide 2-12)
- IC50 [1]: < 250 nM
- IC50 [2]: 140 nM

SMILES: CC[C@H](C)[C@H](NC(C)=O)C(=O)N[C@H]1CSSC[C@@H](C(=O)N[C@H](C(N)=O)[C@@H](C)O)NC(=O)[C@H](CO)NC(=O)[C@H](Cc2c[nH]cn2)NC(=O)[C@H](CCC(=O)O)NC(=O)CNC(=O)[C@H](Cc2c[nH]c3ccccc23)NC(=O)[C@H](CC(=O)O)NC(=O)[C@H](CCC(N)=O)NC(=O)[C@H](Cc2c[nH]c3ccccc23)NC(=O)[C@H]([C@@H](C)CC)NC1=O [Compound 20] (Ac-ICIWQDWGEHSCT-NH2; disulfide 2-12)
- IC50 [1]: < 100 nM
- IC50 [2]: 59 nM

SMILES: CC[C@H](C)[C@H](NC(C)=O)C(=O)N[C@H]1CSSC[C@@H](C(=O)N[C@@H](CO)C(N)=O)NC(=O)[C@H](CCCNC(=N)N)NC(=O)[C@H](Cc2c[nH]cn2)NC(=O)[C@H](CCC(=O)O)NC(=O)CNC(=O)[C@H](Cc2c[nH]c3ccccc23)NC(=O)[C@H](CC(=O)O)NC(=O)[C@H](CCC(N)=O)NC(=O)[C@H](Cc2c[nH]c3ccccc23)NC(=O)[C@H]([C@@H](C)CC)NC1=O [Compound 21] (Ac-ICIWQDWGEHRCS-NH2; disulfide 2-12)
- IC50 [1]: < 100 nM
- IC50 [2]: 77 nM

SMILES: CC[C@H](C)[C@@H]1NC(=O)[C@@H](NC(=O)[C@H](Cc2ccccc2)NC(C)=O)CSSC[C@@H](C(=O)N[C@H](C(N)=O)[C@@H](C)O)NC(=O)[C@H](CCCNC(=N)N)NC(=O)[C@H](Cc2c[nH]cn2)NC(=O)[C@H](CCC(=O)O)NC(=O)CNC(=O)[C@H](Cc2c[nH]c3ccccc23)NC(=O)[C@H](CC(=O)O)NC(=O)[C@H](CCC(N)=O)NC(=O)[C@H](Cc2c[nH]c3ccccc23)NC1=O [Compound 23] (Ac-FCIWQDWGEHRCT-NH2; disulfide 2-12)
- IC50 [1]: < 100 nM

SMILES: CC[C@H](C)[C@H](NC(C)=O)C(=O)N[C@H]1CSSC[C@@H](C(=O)N[C@H](C(=O)N[C@@H](CCC(=O)O)C(N)=O)[C@@H](C)O)NC(=O)[C@H](CCCNC(=N)N)NC(=O)[C@H](Cc2c[nH]cn2)NC(=O)[C@H](CCC(=O)O)NC(=O)CNC(=O)[C@H](Cc2c[nH]c3ccccc23)NC(=O)[C@H](CC(=O)O)NC(=O)[C@H](CCC(N)=O)NC(=O)[C@H](Cc2c[nH]c3ccccc23)NC(=O)[C@H]([C@@H](C)CC)NC1=O [Compound 26] (Ac-ICIWQDWGEHRCTE-NH2; disulfide 2-12)
- IC50 [1]: < 100 nM
